This passage reports IC50 results from patent US11918582B2 (RAPT Therapeutics, Inc., priority 2021, dated 2024).

Each structure is given as a SMILES string. Counter-ions that a name gives are not always drawn.

The target in this assay is T1, human HPK1 (MAP4K1) (Homo sapiens, UniProt Q92918).
T1 construct: Recombinant human HPK1 kinase domain was obtained from ThermoFisher (Cat. #PV6357) and SignalChem (Cat. #M23-11G); purchased ThermoFisher; SignalChem PV6357; M23-11G
T1 sequence (Q92918 17-274 limits assumed): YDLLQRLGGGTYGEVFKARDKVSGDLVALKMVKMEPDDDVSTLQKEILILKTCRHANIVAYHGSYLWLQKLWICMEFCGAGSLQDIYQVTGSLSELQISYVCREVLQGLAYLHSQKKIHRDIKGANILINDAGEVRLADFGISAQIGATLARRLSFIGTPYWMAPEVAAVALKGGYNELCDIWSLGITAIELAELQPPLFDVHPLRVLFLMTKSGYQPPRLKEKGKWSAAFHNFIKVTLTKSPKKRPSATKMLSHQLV
Description: Biochemical assay for activity against HPK1 (ADP-Glo, MBP substrate). The following applies: recombinant human HPK1 kinase domain, 1 nM enzyme, ADP-Glo luminescence. Put shortly:
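Recombinant human HPK1 kinase domain (1 nM solution) preincubated 15 min at room temperature with compounds in pH 7.5 HEPES buffer with NaCl, TCEP, MgCl2, Tween-20, BSA. MBP substrate with ATP added, reaction run 2 h at room temperature. ADP formation read by ADP-Glo luminescence to give IC50.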
Background: ADP-Glo first removes unused ATP, then detects ADP through luciferase.
In the case of `COc1cc2c(cc1Nc1ncc3cnn(CCN(C)C(C)=O)c3n1)CN(C)CC2` [Example 91, N-[2-[6-[(6-methoxy-2-methyl-3,4-dihydro-1H-isoquinolin-7-yl)amino]pyrazolo[3,4-d]pyrimidin-1-yl]ethyl]-N-methyl-acetamide], the IC50 (in general, the point on the concentration scale where inhibition reaches its midpoint) lay in the range of 100 to 250 nM.
Then `COc1cc2c(cc1Nc1ncc3cnn([C@H]4CCC[C@H](C(=O)N(C)C)C4)c3n1)CN(C)CC2` (racemic) [Example 59, rac-(trans)-3-(6-((6-methoxy-2-methyl-1,2,3,4-tetrahydroisoquinolin-7-yl)amino)-1H-pyrazolo[3,4-d]pyrimidin-1-yl)-N,N-dimethylcyclohexane-1-carboxamide], with under 100 nM.
Then `COc1cc2c(cc1Nc1ncc3cnn(C[C@@H]4C[C@H](C(F)(F)F)CN4C(C)=O)c3n1)CN(C)CC2` [Example 144, 1-[(2S,4S)-2-[[6-[(6-methoxy-2-methyl-3,4-dihydro-1H-isoquinolin-7-yl)amino]pyrazolo[3,4-d]pyrimidin-1-yl]methyl]-4-(trifluoromethyl)pyrrolidin-1-yl]ethan-1-one], with 100 to 250 nM; and `COc1cc2c(cc1Nc1ncc3cnn([C@H]4CCC[C@H](C(N)=O)C4)c3n1)CN(C)CC2` (stereo in doubt) [Example 40, (1S,3S)-3-(6-((6-methoxy-2-methyl-1,2,3,4-tetrahydroisoquinolin-7-yl)amino)-1H-pyrazolo[3,4-d]pyrimidin-1-yl)cyclohexane-1-carboxamide], with under 100 nM; and `COc1cc2c(cc1Nc1ncc3cnn(CC4(C)CC4)c3n1)CN(C)CC2` [Example 203, 6-methoxy-2-methyl-N-(1-((1-methylcyclopropyl)methyl)-1H-pyrazolo[3,4-d]pyrimidin-6-yl)-1,2,3,4-tetrahydroisoquinolin-7-amine], with under 100 nM.
For `COc1nc2c(cc1Nc1ncc3cnn([C@H]4CC[C@H](O)CC4)c3n1)CN(C)CC2` [Example 187, (1r,4r)-4-(6-((2-methoxy-6-methyl-5,6,7,8-tetrahydro-1,6-naphthyridin-3-yl)amino)-1H-pyrazolo[3,4-d]pyrimidin-1-yl)cyclohexan-1-ol] the value was under 100 nM.
With `COc1cc2c(cc1Nc1ncc3cnn(CCN(C)S(C)(=O)=O)c3n1)CN(C)CC2` [Example 92, N-[2-[6-[(6-methoxy-2-methyl-3,4-dihydro-1H-isoquinolin-7-yl)amino]pyrazolo[3,4-d]pyrimidin-1-yl]ethyl]-N-methyl-methanesulfonamide], the IC50 is 100 to 250 nM.
As for `COc1cc2c(cc1Nc1ncc3cnn([C@@H]4CCC[C@H](CO)C4)c3n1)CN(C)CC2` (relative stereo) [Example 22, cis-3-(6-((6-methoxy-2-methyl-1,2,3,4-tetrahydroisoquinolin-7-yl)amino)-1H-pyrazolo[3,4-d]pyrimidin-1-ylcyclohexyl)methanol], the IC50 was under 100 nM.
Turning to `COc1cc2c(cc1Nc1ncc3cnn(C[C@@H]4[C@@H](C)[C@H](O)CN4C(C)=O)c3n1)CN(C)CC2` [Example 164, 1-[(2S,3R,4R)-4-hydroxy-2-[[6-[(6-methoxy-2-methyl-3,4-dihydro-1H-isoquinolin-7-yl)amino]pyrazolo[3,4-d]pyrimidin-1-yl]methyl]-3-methyl-pyrrolidin-1-yl]ethenone], the IC50 is under 100 nM.
Then `COc1cc2c(cc1Nc1ncc3cnn([C@H]4CCCC[C@@H]4C)c3n1)CN(C)CC2` (racemic) [Example 30, rac-6-methoxy-2-methyl-N-(1-((1S,2S)-2-methylcyclohexyl)-1H-pyrazolo[3,4-d]pyrimidin-6-yl)-1,2,3,4-tetrahydroisoquinolin-7-amine], with 100 to 250 nM.
For `CN1CCc2ccc(Nc3ncc4cnn(C5COC5)c4n3)cc2C1` [Example 1, 2-methyl-N-(1-(oxetan-3-yl)-1H-pyrazolo[3,4-d]pyrimidin-6-yl)-1,2,3,4-tetrahydroisoquinolin-7-amine] the value was under 100 nM; for `COc1cc2c(cc1Nc1ncc3cnn([C@H]4CC[C@H](O)CC4)c3n1)CN(CC(F)F)CC2` [Example 154, trans-4-(6-((2-(2,2-difluoroethyl)-6-methoxy-1,2,3,4-tetrahydroisoquinolin-7-yl)amino)-1H-pyrazolo[3,4-d]pyrimidin-1-yl)cyclohexan-1-ol], under 100 nM; for `COc1cc2c(cc1Nc1ncc3cnn(C[C@@H]4CC[C@@H](O)CN4C(C)=O)c3n1)CN(C)CC2` [Example 225, 1-((2S,5R)-5-hydroxy-2-((6-((6-methoxy-2-methyl-1,2,3,4-tetrahydroisoquinolin-7-yl)amino)-1H-pyrazolo[3,4-d]pyrimidin-1-yl)methyl)piperidin-1-yl)ethan-1-one], under 100 nM.
As to `COc1cc2c(cc1Nc1ncc3cnn(C[C@H]4CCCCN4C(C)=O)c3n1)CN(C)CC2` [Example 211, 1-[(2R)-2-[[6-[(6-methoxy-2-methyl-3,4-dihydro-1H-isoquinolin-7-yl)amino]pyrazolo[3,4-d]pyrimidin-1-yl]methyl]-1-piperidyl]ethenone hydrochloride], the IC50 was in the range of 100 to 250 nM.
For `COc1cc2c(cc1Nc1ncc3cnn(C[C@@H]4[C@@H](C)CCN4C(C)=O)c3n1)CN(C)CC2` (racemic) [Example 214, 1-[2-[[6-[(6-methoxy-2-methyl-3,4-dihydro-1H-isoquinolin-7-yl)amino]pyrazolo[3,4-d]pyrimidin-1-yl]methyl]-3-methyl-pyrrolidin-1-yl]ethenone] the value was under 100 nM; for `COC(=O)N[C@H](C)Cn1ncc2cnc(Nc3cc4c(cc3OC)CCN(C)C4)nc21` [Example 98, methyl N-[(1R)-2-[6-[(6-methoxy-2-methyl-3,4-dihydro-1H-isoquinolin-7-yl)amino]pyrazolo[3,4-d]pyrimidin-1-yl]-1-methyl-ethyl]carbamate], 100 to 250 nM.
`COc1cc2c(cc1Nc1ncc3cnn(C[C@H]4CCC[C@@H]4C(=O)O)c3n1)CN(C)CC2` [Example 158, (1S,2S)-2-[[6-[(6-methoxy-2-methyl-3,4-dihydro-1H-isoquinolin-7-yl)amino]pyrazolo[3,4-d]pyrimidin-1-yl]methyl]cyclopentanecarboxylic Acid]: the IC50 is under 100 nM.
For `COc1cc2c(cc1Nc1ncc3cnn(C[C@@H]4C[C@H]5C[C@H]5N4C(C)=O)c3n1)CN(C)CC2` [Example 215, 1-[(1R,3S,5R)-3-[[6-[(6-methoxy-2-methyl-3,4-dihydro-1H-isoquinolin-7-yl)amino]pyrazolo[3,4-d]pyrimidin-1-yl]methyl]-2-azabicyclo[3.1.0]hexan-2-yl]ethanone] the value was under 100 nM; for `CC(=O)N1CCC[C@H]1Cn1ncc2cnc(Nc3cc4c(c(C(F)(F)F)c3)CCN(C)C4)nc21` [Example 62, (S)-1-(2-((6-((2-methyl-5-(trifluoromethyl)-1,2,3,4-tetrahydroisoquinolin-7-yl)amino)-1H-pyrazolo[3,4-d]pyrimidin-1-yl)methyl)182thenone182ne-1-yl)ethan-1-one], under 100 nM; for `COc1cc2c(cc1Nc1ncc3cnn([C@H]4C[C@](C)(C(=O)OC)C4)c3n1)CN(C)CC2` [Example 70, trans-methyl 3-[6-[(6-methoxy-2-methyl-3,4-dihydro-1H-isoquinolin-7-yl)amino]pyrazolo[3,4-d]pyrimidin-1-yl]-1-methyl-cyclobutanecarboxylate], under 100 nM.
Then `CN1CCc2ccc(Nc3ncc4cnn(C5CCOCC5)c4n3)cc2C1` [Example 12, 2-methyl-N-(1-(tetrahydro-2H-pyran-4-yl)-1H-pyrazolo[3,4-d]pyrimidin-6-yl)-1,2,3,4-tetrahydroisoquinolin-7-amine], with under 100 nM; and `COc1cc2c(cc1Nc1ncc3cnn([C@H]4CC[C@@H](C(=O)N(C)C)CC4)c3n1)CN(C)CC2` [Example 54, (1s,4s)-4-(6-((6-methoxy-2-methyl-1,2,3,4-tetrahydroisoquinolin-7-yl)amino)-1H-pyrazolo[3,4-d]pyrimidin-1-yl)-N,N-dimethylcyclohexane-1-carboxamide], with under 100 nM; and `CN1CCc2c(cc(Nc3ncc4cnn([C@H]5CC[C@@H](O)CC5)c4n3)cc2C(F)(F)F)C1` [Example 179, (1s,4s)-4-(6-((2-methyl-5-(trifluoromethyl)-1,2,3,4-tetrahydroisoquinolin-7-yl)amino)-1H-pyrazolo[3,4-d]pyrimidin-1-yl)cyclohexan-1-ol], with under 100 nM.
Consider `COc1cc2c(cc1Nc1ncc3cnn(C[C@@H]4C[C@@H]4C(=O)O)c3n1)CN(C)CC2` (racemic) [Example 188, (cis)-2-((6-((6-methoxy-2-methyl-1,2,3,4-tetrahydroisoquinolin-7-yl)amino)-1H-pyrazolo[3,4-d]pyrimidin-1-yl)methyl)cyclopropane-1-carboxylic Acid], for which the IC50 is under 100 nM.
For `COc1cc2c(cc1Nc1ncc3cnn(C[C@H]4CCCN4S(C)(=O)=O)c3n1)CN(C)CC2` [Example 118, (R)-6-methoxy-2-methyl-N-(1-((1-(methylsulfonyl)pyrrolidin-2-yl)methyl)-1H-pyrazolo[3,4-d]pyrimidin-6-yl)-1,2,3,4-tetrahydroisoquinolin-7-amine trifluoroacetate] the value was under 100 nM; for `COc1cc2c(cc1Nc1ncc3cnn(C[C@@H]4C[C@@H](F)CN4C(C)=O)c3n1)CN(C)CC2` [Example 145, 1-[(2S,4R)-4-fluoro-2-[[6-[(6-methoxy-2-methyl-3,4-dihydro-1H-isoquinolin-7-yl)amino]pyrazolo[3,4-d]pyrimidin-1-yl]methyl]pyrrolidin-1-yl]ethan-1-one], 100 to 250 nM.
